Like-named read-outs stand apart in the source and are kept apart here.
What was measured:
[1] = test system: canine genes of the array; experiment: Canine array fold induction of canine genes in liver of canines dosed with test agents (Table 11); assay type: in vivo; settings: dog, gene = c0 of the row; for fold induction at 10 days: 0.3 mg/kg
Source text: (§1) Table 11 depicts the fold induction for canine genes in a canine array.

[2] = test system: canine genes of the array; experiment: Canine array fold induction of canine genes in kidney of canines dosed with test agents (Table 11); assay type: in vivo; settings: dog, gene = c0 of the row; for fold induction at 10 days: 0.3 mg/kg
Source text: as §1

[3] = test system: canine genes in a canine array (Canine kidney); experiment: Canine array fold induction of canine genes in kidney of dogs dosed with an agent (Table 11); assay type: in vivo; settings: for fold induction at 0.3 mg/kg: Canis lupus familiaris, 240 h
Source text: as §1

IL-8 gene expression = experiment: Measurement of IL-8 dose response: IL-8 gene expression (fold induction) in MDCK cells dosed with cadmium chloride, cDNA probes on canine array; assay type: cell-based; settings: MDCK cells dosed for 24 hrs at 0.1 μM, 1 μM, and 10 μM; FIG. 3
Source text: Dosage response is an important concept in toxicology. Depending on the dosage of a toxin or agent which may be toxic, the gene expression profile of a particular gene may vary. One way that this can be envisioned is by observing the changes in fold induction of a particular gene when analyzed using the arrays of this invention. The dosages determined in dose response curves may be useful in determining “threshold” levels of toxicity, for example for FDA approval. Example 15 and FIG. 3 illustrate this embodiment. Methods of analyzing gene expression and how to correlate gene expression data are provided herein.
Fluorescence-labeled first strand cDNA probe was made from total or mRNA by first isolating RNA from control and treated cells, disclosed supra. […]
The volume of each sample that would contain 20 μg of total RNA (or 2 μg of mRNA) was calculated. The amount of DEPC water needed to bring the total volume of each RNA sample to 14 μl was also calculated. […]
Then the appropriate volume of each RNA sample was added to the labeled PCR tube. […] The tubes were kept on ice until all samples are ready for the next step. It is preferable for the tubes to kept on ice until the next step is ready to proceed. The samples were incubated in a PCR machine for 10 minutes at 70° C. followed by 4° C. incubation period until the sample tubes were ready to be retrieved. […]

[4] = test system: Cytochrome P450 2B (gene expression); experiment: Canine array fold induction of canine genes in kidney of dogs dosed with an agent (Table 11); assay type: in vivo; settings: dog, kidney, 0.3 mg/kg, canine kidney, 10 days
Source text: as §1

[5] = test system: Cytochrome P450 2C41 (gene expression); experiment: as above; assay type: in vivo; settings: dog, kidney, 0.3 mg/kg, canine kidney, 10 days
Source text: as §1

[6] = test system: Cytochrome P450 2D (gene expression); experiment: as above; assay type: in vivo; settings: dog, kidney, 0.3 mg/kg, canine kidney, 10 days
Source text: as §1

[7] = Canine kidney, 0.8 mg/kg, 2 days
[8] = canine kidney, 0.3 mg/kg, 10 days

## CN(Cc1cnc2nc(N)nc(N)c2n1)c1ccc(C(=O)N[C@@H](CCC(=O)O)C(=O)O)cc1 [Methotrexate]
[1]; 2 mg/kg, 10319, Canine liver, 2 mg/kg, 3 day
  fold induction at 3 days: 1.1
[2]; 2 mg/kg, 10189, Canine kidney, 2 mg/kg, 2 days
  fold induction at 2 days: 1.1

## C[C@@H]1[C@H](O)[C@@H](C)/C=C/C=C/C=C/C=C/C=C/C=C/C=C/[C@H](O[C@@H]2O[C@H](C)[C@@H](O)[C@H](N)[C@@H]2O)C[C@@H]2O[C@](O)(C[C@@H](O)C[C@@H](O)[C@H](O)CC[C@@H](O)C[C@@H](O)CC(=O)O[C@H]1C)C[C@H](O)[C@H]2C(=O)O [Amphoteracin B]
[3]; [7]
  BRCA1 fold induction: 1.1
  Beta-glucuronidase fold induction: 1.3
  CD40 ligand fold induction: 1.4
  Catalase fold induction: 1.1
  Caveolin-1 fold induction: 1.0
  Caveolin-2 fold induction: 1.0
  Cytochrome P450 2B fold induction: 1.1
  Cytochrome P450 2C21 fold induction: 1.2
  Cytochrome P450 2D fold induction: 1.6
  GRP94 fold induction: 1.9
  Glucose transporter fold induction: 1.2
  Glucose-6-phosphatase fold induction: 1.3
  Glucose-regulated protein 94 #2 fold induction: 1.1
  Glutathione S-transferase alpha subunit fold induction: 1.1
  Interleukin-8 fold induction: 1.2
  Interleukin-10 fold induction: 1.1
  Keratinocyte growth factor fold induction: 1.1
  Mek5 fold induction: 1.1
  Metallothionein 1 fold induction: 2.1
  Multidrug resistant protein-1 fold induction: 1.2
  Phase-1 CCT-11 fold induction: 1.3
  Phase-1 CCT-61 fold induction: 1.1
  Phase-1 CCT-72 fold induction: 1.1
  Phase-1 CCT-74 fold induction: 1.1
  Phase-1 CCT-76 fold induction: 1.0
  Phase-1 CCT-78 fold induction: 1.0
  Phase-1 CCT-80 fold induction: 1.9
  Phase-1 CCT-81 fold induction: 1.0
  Phase-1 CCT-82 fold induction: 1.1
  Phase-1 CCT-83 fold induction: 1.1
  Phase-1 CCT-87 fold induction: 1.1
  Phase-1 CCT-89 fold induction: 1.1
  Phase-1 CCT-91 fold induction: 1.2
  Phase-1 CCT-93 fold induction: 1.0
  Phase-1 CCT-97 fold induction: 1.0
  Phenol sulfotransferase fold induction: 1.0
  Prostaglandin D synthase fold induction: 1.3
  Rab2 fold induction: 1.8
  Rab5 fold induction: 1.1
  Rab7 fold induction: 2.2
  SHB (Src homology 2 protein) fold induction: 1.1
  TFCOUP-related (probable steroid hormone receptor) fold induction: 1.1
  Tissue inhibitor of metalloproteinases-1 fold induction: 2.5
  Tumor necrosis factor-alpha fold induction: 2.0
  UV excision repair protein RAD 23 (XP-C) fold induction: 1.0
  Ubiquitin fold induction: 1.0
  Vascular cell adhesion molecule 1 (VCAM-1) fold induction: 3.5
  ZAP36/annexin IV fold induction: 1.4
  c-erb B-2 fold induction: 1.3
  p38 MAPK fold induction: 1.2
  p53 fold induction: 1.4

## [Cl][Cd][Cl] [cadmium chloride]
IL-8 gene expression
  IL-8 gene expression, fold induction: fold induction varies with the dosage

## C[C@]12CC[C@@H]3c4ccc(O)cc4CC[C@H]3[C@@H]1CC[C@@H]2O [Estradiol]
[1]; 0.3 mg/kg, 10196, Canine Liver, 10 days
  fold induction at 10 days: 1
[1]; 0.3 mg/kg, 10316, Canine liver, 10 day
  fold induction at 10 days: 1.2
[4]
  fold induction at 10 days: 1.2
[5]
  fold induction at 10 days: 1.7
[6]
  fold induction at 10 days: 1.2
[3]; canine kidney, 0.3 mg/kg, 10 days, read-out: Alkaline phosphatase fold induction
  fold induction at 0.3 mg/kg: 1.4
[3]; canine kidney, 0.3 mg/kg, 10 days, read-out: Angiopoietin-related protein 3 (ANGPTL3) fold induction
  fold induction at 0.3 mg/kg: 1.1
[3]; canine kidney, 0.3 mg/kg, 10 days, read-out: BRCA1 fold induction
  fold induction at 0.3 mg/kg: 1.1
[3]; canine kidney, 0.3 mg/kg, 10 days, read-out: Beta-glucuronidase fold induction
  fold induction at 0.3 mg/kg: 1.3
[3]; canine kidney, 0.3 mg/kg, 10 days, read-out: CD40 ligand fold induction
  fold induction at 0.3 mg/kg: 1.1
[3]; canine kidney, 0.3 mg/kg, 10 days, read-out: Catalase fold induction
  fold induction at 0.3 mg/kg: 1.2
[3]; canine kidney, 0.3 mg/kg, 10 days, read-out: Caveolin-1 fold induction
  fold induction at 0.3 mg/kg: 1.4
[3]; canine kidney, 0.3 mg/kg, 10 days, read-out: Caveolin-2 fold induction
  fold induction at 0.3 mg/kg: 1.7
[3]; canine kidney, 0.3 mg/kg, 10 days, read-out: Cubilin fold induction
  fold induction at 0.3 mg/kg: 1.1
[3]; canine kidney, 0.3 mg/kg, 10 days, read-out: Cytochrome c oxidase subunit VIIaL fold induction
  fold induction at 0.3 mg/kg: 1
[3]; canine kidney, 0.3 mg/kg, 10 days, read-out: c-erb B-2 fold induction
  fold induction at 0.3 mg/kg: 1.3
[3]; [8]
  Alkaline phosphatase fold induction: 1.6
  Caveolin-2 fold induction: 1.6
[2]; 0.3 mg/kg, 10087, canine kidney
  fold induction at 10 days: 1.6
[2]; 0.3 mg/kg, 10089, canine kidney
  fold induction at 10 days: 1

From US7091033B2, “Array of toxicologically relevant canine genes and uses thereof” (Phase-1 Molecular Toxicology, Inc., priority 2000, dated 2006)
